Laboratory results published in patent US12441811B2, “Compositions and methods for treating serpin B13 disorders” (REGENTS OF THE UNIVERSITY OF MINNESOTA, priority 2019, dated 2025).

B1: recombinant serpinB13 protein: recombinant serpinB13 (mouse and human not distinguished at this place) (protein)
chain: MDSLGAVSTRLGFDLFKELKKTNDGNIFFSPVGILTAIGMVLLGTRGATASQLEEVFHSEKETKSSRIKAEEKEVIENTEAVHQQFQKFLTEISKLTNDYELNITNRLFGEKTYLFLQKYLDYVEKYYHASLEPVDFVNAADESRKKINSWVESKTNEKIKDLFPDGSISSSTKLVLVNMVYFKGQWDREFKKENTKEEKFWMNKSTSKSVQMMTQSHSFSFTFLEDLQAKILGIPYKNNDLSMFVLLPNDIDGLEKIIDKISPEKLVEWTSPGHMEERKVNLHLPRFEVEDGYDLEAVLAAMGMGDAFSEHKADYSGMSSGSGLYAQKFLHSSFVAVTEEGTEAAAATGIGFTVTSAPGHENVHCNHPFLFFIRHNESNSILFFGRFSSP
B2: human recombinant serpinB13: recombinant human serpinB13 expressed in baculovirus (protein)
chain: B1 chain
B3: mouse recombinant serpinB13: recombinant serpinB13 of mouse (protein)
chain: MDSLGTAATQFLFDLFKELNKTNDGNVFFSPVGISTAIGMIILGTRGATASELQKVLYTEQGTESSRIKSEEEEIEKREEIHHQLQMLLTEISKFSNDYDLIISNRLFGEKTYLFLQKYIDYVEKYYHASLEPVDFVNAADESRKKINSWVESQTNVKVKDLFPEGSLNSSTKLVLINTVYFKGLWDREFKKEHTKEEDFWLNKNLSKPVQMMALCSSFNFTFLEDLQAKIVGIPYKNNDISMFVLLPNDIDGLEKIMDKMSPEKLVEWTSPGHLEQRRVDLRLPRLQVEETYDLEPVLEAVGIHSAFSEHADYSGMSARSGLHAQNFLHRSFLVVTEEGVEATAGTGVGLKVSSAASCELVHCNHPFLFFIRHRESDSILFFGKFSSP

Key:
[1] = system: Ngn3+ endocrine progenitor cells; assay: Ngn3+ cells in embryonic pancreas explants (E12.5) cultured in vitro; assay type: cell-based, mouse; details: for number of Ngn3+ endocrine progenitor cells: E12.5 explants, recombinant protein 10 μg/mL, 72 hours vs buffer
Method: Isolation and culture of embryonic pancreas explants. The isolation and culture of embryonic pancreas explants was performed as described elsewhere, with minor modifications.
Processing of pancreatic tissue for immunofluorescence microscopy. The pancreatic tissues were isolated and fixed either overnight (adult pancreases), or for one hour (embryonic pancreas explants), in 2% PFA (pH 7.4), followed by a two-step saturation process: first in a 30% sucrose solution in PBS and then in optimal cutting temperature (OCT) compound. After complete saturation, the tissues were imbedded in OCT using Cryomold and then snap frozen in an ethanol/dry ice bath. The OCT blocks were serially cut through the entire organ to obtain representative sections every 600 μm (6 to 8 sections per adult pancreas), 50 μm (12 to 14 sections per E16.5 embryonic pancreas), 35 μm (10 to 12 sections per E14.5 embryonic pancreas), or 15 μm (10 to 12 sections per E12.5 embryonic pancreas cultured for 1 to 3 days). For the embryonic linage tracing experiments, three largest sections were taken for the analysis. For all other experiments involving immunofluorescence microscopy, all obtained sections were analyzed. […]
The sections from the pancreases of embryos at age E14.5 and E16.5, and newborn pups (OP), were stained with anti-Ngn3 antibody to determine the total number of endocrine progenitors cells for all sections per explant combined (FIG. 9G, FIG. 17A). Alternatively, the sections representing the pancreases of embryos at age E12.5 (which are considerably smaller) were stained with both anti-Ngn3 and anti-CK19 antibodies to determine the fraction of CK19-positive area that was occupied by Ngn3− positive staining (FIGS. 9D, 10A, 10C, 12D, 12G, 12J and FIGS. 15A, 20B). The following formula was used to adjust for any differences in the pancreas size: (Ngn3^+ cell number/μm^2 of CK19^+ cells)×10^5.
Image analysis. Embryonic images were processed with a plugin-Trainable Weka Segmentation v3.2.28 (Hamilton, New Zealand) for ImageJ v.1.52jv software. To classify and quantify the images in unbiased fashion, we defined the following four classes for the analysis: Ngn3^+ cells, the clusters of cytokeratin 19^+ cells, the negatively stained areas, and background (e.g., the area outside of tissue sample). Alternatively, the Visiopharm version 6.0 software (Visiopharm, Hoerholm, Denmark) with Author module was used to create applications to outline Ngn3^+ cells or double positive cells expressing YFP and insulin using preprocessing and postprocessing steps, when necessary. In addition, the Engine module of the Visiophram module was used to execute created applications and unbiasedly analyze the images. For the unbiased quantitative analysis of β-cells and islets in the whole pancreatic sections, Visiopharm Author module was trained to recognize insulin-positive β-cell clusters with diameter greater than 50 μm as well as negatively stained section area. In all studies involving microscopy the treatment assignments were blinded to investigators who performed data analysis.

[2] = system: Notch1 receptor; assay: Examination of Notch1 receptor in embryonic pancreas (Western blot, flow cytometry, qPCR); assay type: cell-based, mouse
Method: Staining for flow cytometry. BD LSRFortessa X-20, LSR-II and FACSCanto-II were used for FACS analysis. Positive populations of cells were gated and counted using FlowJo ver.10 software. For the islet cells isolated from adult mice, intracellular staining to detect glucagon and insulin was used to count single-positive as well as double-negative cells. In the cells isolated from embryonic pancreas explants, intracellular staining was performed to detect Ngn3, CK19, and active Notch, and extracellular staining was used to detect the extracellular Notch domain, EpCAM, CD31 and CD45.
Western blotting. Pancreatic tissues were processed from E16.5 embryos as single samples and directly used for lysis. Embryonic pancreas explants from E12.5 embryos were cultured in vitro with anti-serpinB13 mAb (or control Ab) for 24 or 48 hours, then, three explant cultures were combined and lysed. The samples were washed two times in ice-cold PBS and lysed with gentle pipetting for 10 minutes with additional tap-vortexing for 15 minutes in RIPA buffer containing Halt protease inhibitors (cat. no. 1862209, Thermo Fisher Scientific). Equal amounts of protein in each sample were run under reducing conditions on Bis-Tris BOLT gradient gel (4-12%) or NUPAGE Tris-acetate gradient gels (4-12%) (both from Thermo Fisher Scientific), and transferred onto […] nitrocellulose or activated PVDF membranes. The membranes were blocked with 5% skim milk and stained with primary and secondary antibodies, as indicated. The Western blots were developed with SuperSignal West Pico Chemiluminescent Substrate or West Femto Maximum Sensitivity Substrate (cat. nos. […] and […], respectively; both from Thermo Scientific), and scanned using the ChemiDoc™ MP Imaging System (Bio-Rad, Hercules, […], USA).
Quantitative real-time PCR. Total RNA from embryonic pancreases was extracted using the RNeasy UCP Micro kit (cat. no. 73934; Qiagen, Hilden, Germany) to measure expression of the Notch1 gene. One hundred to […] of the total RNA per group was reverse transcribed to cDNA using the iScript cDNA Synthesis Kit (cat. no. 1708891; Bio-Rad). Quantitative PCR assays were performed on an Applied Biosystems QuantStudio 3 real-time PCR system using cDNA and the Kapa Sybr Fast reagent (cat. no. 0795959100; Roche). Actin-R was used as a reference gene. The primer sequence for Notch1 was as follows: forward—5′[…]3′ and reverse—5′ […]3′.

Molecule | number of Ngn3+ endocrine progenitor cells [1] | also measured
chicken ovalbumin: non-inhibitory structural homolog and founding member of the clade B serpin family, used as control [reference compound] | not | 
CC(C)C[C@H](NC(=O)[C@H]1O[C@@H]1C(=O)O)C(=O)NCCCCN=C(N)N [Clone E64, reference compound] |  | mAb-induced Notch1 degradation fragments in presence of protease inhibitor ([2]; E64 1 μM with antibody for 48 hours): almost completely prevented; size of the Ngn3+ cell population ([1]; E12.5 WT explants, E64 10 μM, 48 hours vs DMSO): significantly reduced
recombinant CatL: recombinant mouse cathepsin L |  | cleavage of the extracellular domain of Notch1 ([2]; recombinant CatL 2.5 μg/mL for last 4 hours of 48-hour incubation): cleaved; Ngn3 cells ([1]; recombinant mouse cathepsin L 2.5 μg/mL for 4 hours vs buffer): induced additional
B1 | downregulate | 
B2 | significant drop | 
B3 | significant drop | 
